Assay [1] has as its system synthesis rates of rat brain catecholamines. Particulars: ip.
Experimental: The effects of compounds on synthesis rates of rat brain catecholamines were estimated by measuring the accumulation of [3-(3,4-dihydroxyphenyl)-L-alanine (DOPA) after administration of the L-aromatic amino acid decarboxylase inhibitor, NSD 1015 (Pugsley, et al., 1995).
Test compounds were administered to rats i.p. 30 minutes before the injection of the L-aromatic amino acid decarboxylase inhibitor, NSD 1015 (100 mg/kg i.p.). Rats were sacrificed by decapitation 30 minutes later. The striatum and mesolimbic regions were rapidly dissected from the brains and stored at -70° C. until assayed. Synthesis rates of rat brain catecholamines were estimated by measuring the accumulation of the DA precursor DOPA after NSD 1015 administration by HPLC with electrochemical detection (Puglsey, et al., 1995). Each value represents the mean of four determinations and is expressed as a percent of the control values.
For another assay, the system named is locomotor activity. In words: Behavioral activity (locomotor activity) in the Omnitech Digiscan Animal Activity Monitors. The class given is in vivo, mice and rats. As to the method: PROTOCOL FOR THE BEHAVIORAL ACTIVITY ASSESSMENT OF MICE AND RATS IN THE OMNITECH DIGISCAN ANIMAL ACTIVITY MONITORS
The purpose of this test is to evaluate compounds for antipsychotic-like central nervous system (CNS) effects and a variety of other behavioral effects generally associated with CNS activity. […] Generally, however, drug effects on behavior are assessed using total distance traveled (in cm) as the most accurate measure of locomotor activity.
Male CD-1 albino mice weighing 20 to 40 g (Charles River Laboratories) or male Sprague-Dawley rats weighing 150 to 300 g (Harlan Laboratories) are used for these studies. […] Drug doses are expressed as the active moiety (taking into account the salt vs free base molecular weight of the drug). […]
Once the animal is placed in the activity chamber, the chambers are individually activated to begin collecting data. Activity levels are generally monitored with the overhead lights turned off, as the dark-stimulation tends to produce less variation in the data. […]
Data can be expressed as either actual counts, time (in sec), centimeters traveled, or percent inhibition of activity relative to vehicle-treated control animals tested concurrently. Significant changes in activity (i.e., cm traveled), relative to controls, are determined by t-test or analysis of variance and Newman-Keul's multiple-range test. […]

Assay [2] has as its system amphetamine-stimulated locomotion. As to the kind of experiment: Blockade of amphetamine-stimulated locomotion in rats. The class given is in vivo, rat. The source says: PROTOCOL FOR THE BLOCKADE OF AMPHETAMINE-STIMULATED LOCOMOTION IN RATS
The blockade of amphetamine-stimulated locomotion procedure is a modification of the Locomotor Activity Protocol in the Omnitech Digiscan Activity Monitors described above. The blockade of amphetamine-stimulated locomotion procedure uses the central nervous system stimulant d-amphetamine to assess antipsychotic activity of dopaminergic agents.
Male Sprague-Dawley rats (Harlan Labs) were used for these studies. Drugs were dissolved in saline or water, and administered either orally (PO) or intraperitoneally (IP) in volumes of 5 mL/kg. Saline control rats and amphetamine (0.5 mg/kg IP) control rats are included with each study (n=4-6 rats per treatment group). For the IP studies, amphetamine is given 20 minutes prior to the drug, after which a 30 minute locomotor activity test is conducted. For the oral study, drug is dosed 30 minutes prior to the test, while amphetamine is given 15 minutes prior to the test, which allows time for oral absorption. Locomotor activity (centimeters travelled per 30 minute test) is measured in 16"×16" open chambers. Amphetamine generally produces a 2- to 3-fold increase in locomotion over saline controls. Drug effects are reported as percent reversal of amphetamine-stimulated locomotion. Significant changes in amphetamine-stimulated locomotion, relative to amphetamine treated controls, were determined by t-test. The dose which would reverse amphetamine-stimulated locomotion by 50% (ED50) and the 95% confidence limits were estimated by regression analysis.

Structures are written as SMILES.

Take `Cc1ccc(N2CCN(Cc3ccc4c(c3)NCCN4)CC2)cc1C` [Example 2, 6-[4-(3,4-Dimethylphenyl)piperazin-1-ylmethyl]-1,2,3,4-tetrahydroquinoxaline]: the “DA Synthesis in Rat Hippocampus” value in assay [1] is given as “+52% of the control values”. In addition, the “DA Synthesis in Rat Striatum” value in assay [1] was “+66% of the control values”. Besides, the “Omnitech Digiscan Activity Monitor test (result in words)” value with locomotor activity (1, 3, 10, 30 mg/kg IP) is on record as “dose-dependent decrease”. Also, the ED50 in the assay with locomotor activity (Mus musculus, ip) came out at 16.5 mg/kg; in assay [2] (rat, PO, read-out: oral blockade of amphetamine-stimulated locomotion ED50), 5.8 mg/kg. The “blockade of amphetamine-stimulated locomotion (result in words)” value in assay [2] (rat, 1, 3, 10 and 30 mg/kg IP) is given as “dose-dependent blockade”.

The term ED50 denotes the dose that gives a 50% effect, or the effect in half of the subjects.

Values taken from patent US5885994A, “Tetrahydroquinoxaline dopamine D4 receptor antagonists” (Warner-Lambert Company, priority 1998, dated 1999).
